Results: the METLIN SMRT retention time set (Domingo-Almenara et al. 2019)

Assay: gradient 5% acetonitrile 3 min, to 50% in 2 min, to 85% in 15 min, held 3 min, 100 µL/min
Conditions: column: Zorbax Extend-C18 2.1 x 50 mm; eluents: water / acetonitrile, 0.1% formic acid
Method in brief: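 Each retention time is based on an adduct peak selected computationally and verified by manual inspection. Measurements used HPLC–quadrupole time-of-flight mass spectrometry in positive and negative ionization mode on mixtures of ~100 pure standards. Chromatography ran on a Zorbax Extend-C18 column (2.1 × 50 mm, 1.8 μm) at 100 μL/min with water and acetonitrile, each containing 0.1% formic acid, and dead and dwell volumes of 40 μL and 900 μL.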

Cc1ccc(S(=O)(=O)CCc2noc(C(=O)NCCCN3CCC(C)CC3)n2)cc1
RP-LC retention time: 637 s

O=C(Nc1cccc(Cl)c1)Nn1cnnc1
RP-LC retention time: 691 s

O=C(Nc1nc(-c2ccc3c(c2)OCCO3)cs1)c1cc(Cl)sc1Cl
RP-LC retention time: 1120 s

Cc1ccc(-c2noc(Cc3nc(-c4ccc(F)cc4)cs3)n2)cc1
RP-LC retention time: 1310 s

Cc1ccc(S(=O)(=O)Nc2ccc(-c3cn4ccc(C)nc4n3)cc2)c(C)c1
RP-LC retention time: 679 s

CC(C)c1c(C2CCN(C(=O)C3(c4ccccc4)CC3)CC2)noc1N
RP-LC retention time: 813 s

CCN(CC)CCNc1ncnc2c1cnn2-c1cccc(Cl)c1
RP-LC retention time: 684 s

O=c1c2ccccc2n(Cc2nc(-c3ccccc3)no2)c(=O)n1Cc1ccco1
RP-LC retention time: 1050 s

COc1ccc(-c2nc3cc(C)ccn3c2NC(=O)COc2ccc(Cl)cc2)cc1
RP-LC retention time: 729 s

Cc1ccccc1-c1nc(-c2ccc(-n3cccn3)nc2)no1
RP-LC retention time: 1310 s

CSc1ccc(C2c3[nH]c4ccccc4c3CCN2C(=O)C2CC2)cc1 (centres undefined)
RP-LC retention time: 1120 s

Cc1cc(NC(=O)c2ccc(-c3cncnc3)nc2)ccc1Br
RP-LC retention time: 859 s

Cc1ccc(CNC(=O)C2(C)CCN(C(=O)Nc3cccc(Cl)c3C)CC2)cc1
RP-LC retention time: 717 s

CN(C)CCNC(=O)CN1C(=O)CN(C(=O)NCc2ccccc2)c2ccccc21
RP-LC retention time: 606 s

Cc1ccccc1-n1c(=O)c2sccc2n(Cc2nc(-c3cccc(Br)c3)no2)c1=O
RP-LC retention time: 1110 s

c1ccc(-c2noc(-c3cccnc3N3CCN(c4ccccc4)CC3)n2)cc1
RP-LC retention time: 1280 s

O=C(NCc1ccccc1F)C1CCN(c2cnc(N3CCCC3)nc2)CC1
RP-LC retention time: 654 s

Cc1[nH]nc(-c2c(C)sc(C)c2S(=O)(=O)NCc2ccc(Br)cc2)c1C
RP-LC retention time: 1130 s

O=C(Nc1cccc(C(F)(F)F)c1)N1CCC(N2C[C@H]3C[C@H](C2)[C@H]2CCCC(=O)N2C3)CC1
RP-LC retention time: 653 s

O=C(NCC1CCOCC1)Nc1ccc(C(F)(F)F)cc1
RP-LC retention time: 734 s

COC(=O)c1cc(S(=O)(=O)N2CCCC2C(=O)Nc2cccc(SC)c2)cn1C (centres undefined)
RP-LC retention time: 909 s

CCCN1C(=O)c2c(C(=O)N(C)Cc3ccccc3)ncn2CC1(C)C(=O)NCc1ccc(C)cc1 (centres undefined)
RP-LC retention time: 793 s

N#CCCSc1ccccc1NC(=O)c1ccc(Cl)s1
RP-LC retention time: 908 s

CC(CC(=O)NCCC1=CCCCC1)Cc1nnc2c(=O)n(-c3cccc(F)c3)ccn12 (centres undefined)
RP-LC retention time: 813 s

Cn1c(=O)n(C)c2cc(S(=O)(=O)N3CCN(c4ccccn4)CC3)c(Cl)cc21
RP-LC retention time: 602 s

CCc1noc(-c2nnn3c2COC(c2ccc(OC)cc2)C3)n1 (centres undefined)
RP-LC retention time: 941 s

Cc1ccccc1Nc1c(-c2ccc(N3CCOCC3)cc2)nc2c(C)cccn12
RP-LC retention time: 729 s

COc1ccc(CNC(=O)C2CCCN(c3nccnc3Sc3ccccc3)C2)cc1OC (centres undefined)
RP-LC retention time: 1120 s

C=C1[C@@H](C)[C@H]2[C@H](Cc3ccccc3)NC(=O)C23[C@H](OC(C)=O)/C=C/[C@](C)(O)C(=O)[C@@H](C)C/C=C/[C@H]3[C@@H]1O (some centres undefined)
RP-LC retention time: 801 s

COc1ccc(S(=O)(=O)N(C(C)=O)c2ccccc2/C=C/c2cc[n+]([O-])cc2)cc1
RP-LC retention time: 785 s

Cc1ccc(OCC(=O)Nc2ccc(-c3nc(-c4cc(C)ccc4C)co3)cc2)cc1
RP-LC retention time: 888 s

CCn1nc(C)c2ccnc(N3CCC(C(=O)N4CCN(c5cccc(OC)c5)CC4)CC3)c21
RP-LC retention time: 712 s

Cc1cc(NC(=O)NC(=O)c2ccccc2NC(=O)CN)ccc1Oc1ncc(Br)cn1
RP-LC retention time: 653 s

NS(=O)(=O)c1ccc(Nc2ccccc2)c([N+](=O)[O-])c1
RP-LC retention time: 856 s

COc1ccc(-c2nc3cnccn3c2NCCC(=O)N2CCN(C(C)C)CC2)cc1
RP-LC retention time: 565 s

CN(Cc1nc2cc(C(=O)N3CCCC3)ccc2n1C)C(=O)Nc1ccc(Cl)cc1
RP-LC retention time: 654 s

COc1ccc(NC(=O)N2c3ccccc3CC2c2nc(C(C)C)no2)c(OC)c1 (centres undefined)
RP-LC retention time: 1080 s

COc1ccc(S(=O)(=O)N2CCC(c3noc(-c4ccc(C)cc4)n3)CC2)cc1
RP-LC retention time: 1150 s

CCCN1CCN(CCCNC(=O)C2CCN(Cc3cn(C)c4ccc(OC)cc34)CC2)CC1
RP-LC retention time: 533 s

CCC(=O)Nc1ccc2c(c1)Sc1ncccc1C(=O)N2C
RP-LC retention time: 630 s

COc1ccc(-c2nc(-c3cn(-c4ccc(C)cc4)nn3)no2)cc1OC
RP-LC retention time: 1050 s

COC(=O)c1ccc(Cn2cnc3c(-c4cccc(F)c4)csc3c2=O)o1
RP-LC retention time: 957 s

CCCN1CCN(CCCNC(=O)C(C)n2c3ccccc3c3cnn(C)c(=O)c32)CC1 (centres undefined)
RP-LC retention time: 571 s

Cc1nc(C(N)=O)nc2ccccc12
RP-LC retention time: 657 s
